The values below come from patent publication US12552753B2, “Methods and compositions for targeting Tregs using CCR8 inhibitors” (Nanjing Immunophage Biomedical Co., Ltd., priority 2020, dated 2026).

Counter-ions that a name gives are not always drawn.

The first test deals with CCR8 (Homo sapiens, UniProt P51685). The test can be described thus: Tango assay (Tango-CCR8-Gal4-CHO-K1 cells, CCL1-stimulated, ONE-Glo luminescence). The conditions noted are these: Tango Assay IC50, Inhibition of CCR8 Tango cell in vitro.
Chain of CCR8 (P51685 whole entry, the tested form may be a part): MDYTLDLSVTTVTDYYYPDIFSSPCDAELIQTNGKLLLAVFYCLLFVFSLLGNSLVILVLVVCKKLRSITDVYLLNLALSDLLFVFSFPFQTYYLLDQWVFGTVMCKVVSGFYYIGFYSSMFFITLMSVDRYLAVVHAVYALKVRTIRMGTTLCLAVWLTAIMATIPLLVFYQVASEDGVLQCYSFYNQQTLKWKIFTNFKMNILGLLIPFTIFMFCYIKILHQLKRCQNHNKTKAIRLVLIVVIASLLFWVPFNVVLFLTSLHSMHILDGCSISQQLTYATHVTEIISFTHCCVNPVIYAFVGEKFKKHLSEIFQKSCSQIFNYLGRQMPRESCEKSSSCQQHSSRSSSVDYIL
Protocol: The Tango cell line was used to monitor antagonists-mediated receptor inactivation.
Tango cells (Tango-CCR8-Gal4-CHO-K1 cells constructed by Genomeditech) were passaged in complete medium (F12K, 10% FBS, 1% penicillin-streptomycin, 4 μg/ml puromycin, 4 μg/ml blasticidin and 100 μg/ml hygromycin) in incubator (37° C., 5% CO2).
Twenty-four hours before the seed, cells were cultured in 10 or 15 cm dish at a density of 30% confluence in culture medium (F12K, 10% FBS, 1% penicillin-streptomycin).
Cells were suspended in starving medium (F12K, 1% FBS, 1% penicillin-streptomycin) before being seeded into black/clear 96 wells (1×10^4 cells/70 μl/well) and incubated for 6 hours (37° C., 5% CO2). Different concentration of compound, dissolved in DMSO, was into the 96-well plates, with 50 μl in each well, and incubation continued for 1 hour at 37° C.
After the incubation, the medium was removed and the 96-well plate was put in −80° C. freezer for an hour or longer. The plate and the ONE-Glo reagent (Promega, Catalog Number: E6110) which was frozen in −80° C., were taken out and rewarmed to room temperature. The ONE-Glo working reagent was prepared by mixing ONE-Glo reagent with F12K (no FBS) (1:2), and 40 μl ONE-Glo working reagent was added into each well. After incubating for 10 minutes at room temperature, the plate was read using microplate luminescence reader at 560 nm.
The microplate reader records luminescence in relative luminescence units (RLU).
With `Cc1ccccc1C(=O)Nc1ccc(S(=O)(=O)N[C@H](C)C2CCN(C(=O)OC(C)(C)C)CC2)cc1C(F)(F)F` [Compound 185, (R)-tert-butyl 4-(1-(4-(2-methylbenzamido)-3-(trifluoromethyl)phenyl-sulfonamido)ethyl)piper-idine-1-carboxylate], half-maximal inhibition (IC50) required 673 nM.

`Cc1ccccc1C(=O)Nc1ccc(S(=O)(=O)NC(C)C2CCCCCC2)c2ccccc12` (centres unmarked) [Compound 76, N-(4-(N-(1-cycloheptylethyl)sulfamo-yl)naphthalen-1-yl)-2-methylbenzamide] came in with an IC50 of 1.8 nM.

With `Cc1ccccc1C(=O)Nc1ccc(S(=O)(=O)NC(C)C2CCCN(C(=O)CN)C2)c2ccccc12` (single isomer, unassigned) [Compound 156C, N-(4-(N-(1-(1-(2-aminoacetyl)piperidin-3-yl)ethyl)sulfamoyl)naph-thalen-1-yl)-2-methylbenzamide], the IC50 amounted to 205 nM.

`Cc1cc(S(=O)(=O)N[C@H](C)C2CCNCC2)ccc1NC(=O)C1CCCCC1` [Compound 208A, (R)-N-(2-methyl-4-(N-(1-(piperidin-4-yl)ethyl)sulfamoyl)phenyl) cyclohexanecarboxamide hydrochloride] showed an IC50 of 55 nM.

As to `Cc1ccccc1C(=O)Nc1ccc(S(=O)(=O)NC2CCCc3ccccc32)c2ccccc12` (centres unmarked) [Compound 28, 2-methyl-N-(4-(N-(1,2,3,4-tetrahydronaphthalen-1-yl)sulfamoyl)naphtha-len-1-yl)benzamide], 19 nM corresponded to half-maximal inhibition (IC50).

The molecule `Cc1cc(S(=O)(=O)N[C@H](C)C2CCNCC2)ccc1NC(=O)c1ccncc1C` [Compound 251A, (R)-3-methyl-N-(2-methyl-4-(N-(1-(piperidin-4-yl)ethyl)sulfamoyl)phenyl)isonicotinamide hydrochloride] showed a half-inhibitory concentration (IC50) greater than 100000 nM.

For the molecule `CC(NS(=O)(=O)c1ccc(-c2[nH]nnc2-c2ccccc2)c2ccccc12)C1CCCCC1` (centres unmarked) [Compound 148, N-(1-cyclohexylethyl)-4-(4-phenyl-1H-1,2,3-triazol-5-yl)naphthalene-1-sulfonamide], the IC50 was found to be 613 nM.

Regarding `Cc1cc(S(=O)(=O)N[C@H](C)C2CCN(C(C)C)CC2)ccc1NC(=O)c1ccccc1C` [Compound 200, (R)-N-(4-(N-(1-(1-isopropylpiperidin-4-yl)ethyl)sulfamoyl)-2-methylphenyl)-2-methylbenzamide], the IC50 was 15 nM.

In turn, `Cc1ccccc1C(=O)Nc1ccc(S(=O)(=O)NC(C)c2cccc(N(C)C)c2)c2ccccc12` (centres unmarked) [Compound 26, N-(4-(N-(1-(3-(dimethylamino)phenyl)ethyl)sulfamoyl)naph-thalen-1-yl)-2-methylbenzamide] came in with an IC50 of 83 nM.

In turn, `Cc1ccccc1C(=O)Nc1ccc(S(=O)(=O)NC(C)C2CCCN(C(=O)[C@H](C)N)C2)c2ccccc12` (single isomer, unassigned) [Compound 158C] had an IC50 of 458 nM.

Take `Cc1ccccc1C(=O)Nc1ccc(S(=O)(=O)N[C@H](C)C2CCN(C(=O)OC(C)(C)C)CC2)c(F)c1C` [Compound 176, (R)-tert-butyl 4-(1-(2-fluoro-3-methyl-4-(2-methylbenzamido)phen-ylsulfonamido)ethyl)pi-perridine-1-carboxylate]: half-maximal inhibition (IC50) was put at 711 nM.

For `Cc1ccccc1C(=O)Nc1ccc(S(=O)(=O)N[C@H](C)C2CCNCC2)cc1C#N` [Compound 195, (R)-N-(2-cyano-4-(N-(1-(piperidin-4-yl)ethyl)sulfamoyl)phenyl)-2-methylbenzamide], the IC50 was determined as 23 nM.

As to `CN1CCN(C(=O)N2CCC(NS(=O)(=O)c3ccc4[nH]c(-c5ccccc5)nc4c3)CC2)CC1` [Compound 44, N-(1-(4-methylpiperazine-1-carbonyl)piperidin-4-yl)-2-phenyl-1H-m benzo[d]imidazole-5-sulfonamide], the 50% inhibitory concentration (IC50) is greater than 10000 nM.

With `Cc1cc(S(=O)(=O)N[C@H](C)C2CCNCC2)cc(C)c1NC(=O)c1ccccc1` [Compound 181, (R)-N-(2,6-dimethyl-4-(N-(1-(piperidin-4-yl)ethyl)sulfa-moyl)phenyl)benza-mide hydrochloride], the IC50 is greater than 10000 nM.

The molecule `Cc1cc(S(=O)(=O)N[C@H](C)C2CCNCC2)ccc1NC(=O)c1ccccc1` [Compound 166A, (R)-N-(2-methyl-4-(N-(1-(piperidin-4-yl)ethyl)sulfamoyl)phen-yl)benzamide hydrochloride] returned an IC50 of 99 nM.

For the molecule `CCCC(=O)N1CCCC1C(=O)NS(=O)(=O)c1ccc(NC(=O)c2ccccc2C)c2ccccc12` (centres unmarked) [Compound 7, 1-butyryl-N-((4-(2-methylbenzamido)naph-thalen-1-yl)sulfonyl)pyrrolidine-2-carboxamide], the IC50 is greater than 10000 nM.

`Cc1ccccc1C(=O)Nc1ccc(S(=O)(=O)NC(C)c2cccc(NC(=O)OC(C)(C)C)c2)c2ccccc12` (centres unmarked) [Compound 71, tert-butyl (3-(1-(4-(2-methylbenzamido)naph-thalene-1-sulfonamido)ethyl)phe-nyl)carbamate] came in with a half-maximal inhibitory concentration (IC50) of 147 nM.

Consider `COCCN1CCC([C@@H](C)NS(=O)(=O)c2ccc(NC(=O)c3ccccc3C)c(C)c2)CC1` [Compound 202, (R)-N-(4-(N-(1-(1-(2-methoxyethyl)piperidin-4-yl)ethyl)sulfamoyl)-2-methylphenyl)-2-methylbenzamide], for which 60 nM corresponded to half-maximal inhibition (IC50).

Regarding `Cc1cc(S(=O)(=O)NC(C2CCNCC2)C2CC2)ccc1NC(=O)c1ccccc1C` (centres unmarked) [Compound 225A, N-(4-(N-(cyclopropyl (piperidin-4-yl)methyl)sulfamoyl)-2-methylphenyl)-2-methylbenzamide], the IC50 stood at 25 nM.

In the case of `Cc1cc(S(=O)(=O)N[C@H](C)C2CCNCC2)ccc1NC(=O)Cc1ccccc1` [Compound 207A, (R)-N-(2-methyl-4-(N-(1-(piperidin-4-yl)ethyl)sulfamoyl)phenyl)-2-phenylacetamide hydrochloride], the 50% inhibitory concentration (IC50) is 40 nM.

With `CC(NS(=O)(=O)c1cccc(N2CCCCC2C(=O)O)c1)C1CCCCC1` (centres unmarked) [Compound 153, 1-(3-(N-(1-cyclohexylethyl)sulfam-oyl)phenyl)piperidine-2-carboxylic acid], the half-maximal inhibitory concentration (IC50) was greater than 10000 nM.

Molecule `CCN(C)C(=O)C12CC(NS(=O)(=O)c3ccc(NC(=O)c4ccccc4C)c4ccccc34)(C1)C2` [Compound 64, N-ethyl-N-methyl-3-(4-(2-methylbenzamido)naph-thalene-1-sulfonamido)bicyclo [1.1.1]pentane-1-carboxamide] returned an IC50 greater than 10000 nM.

For the molecule `Cc1ccccc1C(=O)Nc1cc(Cl)c(S(=O)(=O)N[C@H](C)C2CCNCC2)cc1Cl` [Compound 243A, (R)-N-(2,5-dichloro-4-(N-(1-(piperidin-4-yl)ethyl)sulfamoyl)phen-yl)-2-methylbenzamide hydrochloride], the IC50 was 12 nM.

In the case of `Cc1ccccc1C(=O)Nc1ccc(S(=O)(=O)NC2CCC(C(=O)N3CCN(C)CC3)CC2)c2ccccc12` (centres unmarked) [Compound 46, 2-methyl-N-(4-(N-(4-(4-methylpiperazine-1-carbonyl)cyclohexyl)sul-famoyl)naphthalen-1-yl)benzamide], the 50% inhibitory concentration (IC50) is greater than 10000 nM.

In the case of `CC(=O)Nc1ccccc1C(C)NS(=O)(=O)c1ccc(NC(=O)c2ccccc2C)c2ccccc12` (centres unmarked) [Compound 125, N-(4-(N-(1-(2-acetamidophenyl)ethyl)sulfamoyl)naphthalen-1-yl)-2-methylbenzamide], the 50% inhibitory concentration (IC50) was greater than 10000 nM.

Take `CC(NS(=O)(=O)c1ccc2c(c1)C(=O)NCCC2)C1CC2CCC1CC2` (centres unmarked) [Compound 135, N-(1-(bicyclo[2.2.2]octan-2-yl)ethyl)-1-oxo-2,3,4,5-tetrahydro-1H-benzo[c]azepine-8-sulfonamide]: the IC50 is greater than 10000 nM.

With `COc1ccc(C(=O)Nc2ccc(S(=O)(=O)N[C@H](C)C3CCN(C)CC3)cc2C)c(C)c1` [Compound 266, (R)-4-methoxy-2-methyl-N-(2-methyl-4-(N-(1-(1-methylpiperidin-4-yl)ethyl)sulfamoyl)phenyl) benzamide], the IC50 stood at 3 nM.

Turning to `Cc1ccccc1C(=O)Nc1ccc(S(=O)(=O)NC(C)C2CCN(C(=O)OC(C)(C)C)CC2)c2ccccc12` (centres unmarked) [Compound 60, tert-butyl 4-(1-(4-(2-methylbenzamido)naph-thalene-1-sulfonamido)ethyl)piper-idine-1-carboxylate], the IC50 is 160 nM.

In turn, `Cc1ccccc1C(=O)Nc1ccc(S(=O)(=O)N[C@@H]2CCN3C(=O)CC[C@@H]3C2)c2ccccc12` [Compound 47, 2-methyl-N-(4-(N-((7R,8aR)-3-oxooctahydroindolizin-7-yl)sulfamoyl)naphthalen-1-yl)benzamide] returned a 50% inhibitory concentration (IC50) of 23 nM.

As for `Cc1ccccc1C(=O)Nc1ccc(S(=O)(=O)NC23CC(C2)C3)c2ccccc12` [Compound 63, N-(4-(N-(bicyclo[1.1.1]pentan-1-yl)sulfamoyl)naphthalen-1-yl)-2-methylbenzamide], the IC50 is greater than 10000 nM.

Turning to `COC(=O)CN1CCCCC1C(C)NS(=O)(=O)c1ccc(NC(=O)c2ccccc2C)c2ccccc12` (single isomer, unassigned) [Compound 70B, methyl 2-(2-(1-(4-(2-methylbenzamido)naph-thalene-1-sulfonamido)ethyl)piper-idin-1-yl)acetate], the IC50 was greater than 10000 nM.

In the case of `CC(NS(=O)(=O)c1cccc(C(=O)O)c1)C1CCCCC1` (centres unmarked) [Compound 140, 3-(N-(1-cyclohexylethyl)sul-famoyl)benzoic acid], the IC50 was greater than 10000 nM.

As to `Cc1ccccc1C(=O)Nc1ccc(S(=O)(=O)NC(C)C23CC4CC(CC(C4)C2)C3)c2ccccc12` (centres unmarked) [Compound 84, N-(4-(N-(1-((3r,5r,7r)-adamantan-1-yl)ethyl)sulfamoyl)naph-thalen-1-yl)-2-methylbenzamide], 0.2 nM corresponded to half-maximal inhibition (IC50).

The test is the same for the next values; noted with them: read-out: Tango Assay IC50, Inhibition of CCR8 Tango cell in vitro.
On to `Cc1ccccc1C(=O)Nc1ccc(S(=O)(=O)NC(C)C2CCCNC2)c2ccccc12` (centres unmarked) [Compound 17, 2-methyl-N-(4-(N-(1-(piperidin-3-yl)ethyl)sulfamoyl)naph-thalen-1-yl)benzamide], for which the IC50 is 112 nM.

Take `Cc1ccccc1C(=O)Nc1ccc(S(=O)(=O)NC(C)C2CCCN(C(=O)[C@H](C)NC(=O)OC(C)(C)C)C2)c2ccccc12` (single isomer, unassigned) [Compound 157C]: the IC50 was greater than 10000 nM.

Broadly, the IC50 is the concentration that gives 50% inhibition.
